The text below walks through data of ChEMBL document CHEMBL5029173, “Differential BET Bromodomain Inhibition by Dihydropteridinone and Pyrimidodiazepinone Kinase Inhibitors” (J Med Chem, 2021).

Assay [1] addresses Serine/threonine-protein kinase PLK1 (Homo sapiens) (UniProt P53350). The settings on record: MM1.S, dose 30-100 nM, time 6.0 hrs.
The target in assay [2] is T1, Bromodomain testis-specific protein (Homo sapiens, UniProt Q58F21).
Description: Binding affinity to recombinant human N-terminal hexaHis-tagged BRDT expressed in Escherichia coli BL21 (DE3) cells assessed as change in melting temperature by DSF assay
Assay [3] has as its target T2, Bromodomain-containing protein 4 (Homo sapiens, UniProt O60885). The experiment in a line: Binding affinity to recombinant human N-terminal hexaHis-tagged BRD4 expressed in Escherichia coli BL21 (DE3) cells by qPCR assay. (In qPCR the cycle at which signal appears reflects the starting amount.)
The target of assay [4] is T2, Bromodomain-containing protein 4.
Description: Binding affinity to recombinant human N-terminal hexaHis-tagged BRD4 expressed in Escherichia coli BL21 (DE3) cells assessed as change in melting temperature by DSF assay
Assay [5] has the same target. The experiment in a line: Binding affinity to recombinant human N-terminal hexaHis-tagged BRD4 expressed in Escherichia coli BL21 (DE3) cells by ITC analysis.
The target of assay [6] is T1, Bromodomain testis-specific protein. The experiment in a line: Binding affinity to recombinant human N-terminal hexaHis-tagged BRDT expressed in Escherichia coli BL21 (DE3) cells by ITC analysis. A general note: In ITC the heat of successive injections is recorded.
The test system of a further assay is MM1.S. The experiment in a line: Inhibition of cell growth in human MM1.S cells incubated for 72 hrs by CellTiter-blue reagent based assay. The format is functional. On the technique in general: The colour change of resazurin is a common sign of viable cells or microbes.
The subject of the next assay is HEK-293T. The assay is described as follows: Inhibition of cell growth in HEK293T cells incubated for 72 hrs by CellTiter-blue reagent based assay. The format is functional. The settings on record: Homo sapiens.
The target of assay [7] is T2, Bromodomain-containing protein 4. The assay is described as follows: Binding affinity to recombinant human N-terminal hexaHis-tagged BRD4 expressed in Escherichia coli BL21 (DE3) cells by MST assay.
The target in assay [8] is T1, Bromodomain testis-specific protein. The experiment in a line: Binding affinity to recombinant human N-terminal hexaHis-tagged BRDT expressed in Escherichia coli BL21 (DE3) cells by MST assay.
The target is the same in assay [9]. The experiment in a line: Binding affinity to recombinant human N-terminal hexaHis-tagged BRDT expressed in Escherichia coli BL21 (DE3) cells by qPCR assay.

Active and inactive are the calls of the source. No cut-off for these calls is given here.

Chain of Serine/threonine-protein kinase PLK1 (Homo sapiens) (P53350 whole entry): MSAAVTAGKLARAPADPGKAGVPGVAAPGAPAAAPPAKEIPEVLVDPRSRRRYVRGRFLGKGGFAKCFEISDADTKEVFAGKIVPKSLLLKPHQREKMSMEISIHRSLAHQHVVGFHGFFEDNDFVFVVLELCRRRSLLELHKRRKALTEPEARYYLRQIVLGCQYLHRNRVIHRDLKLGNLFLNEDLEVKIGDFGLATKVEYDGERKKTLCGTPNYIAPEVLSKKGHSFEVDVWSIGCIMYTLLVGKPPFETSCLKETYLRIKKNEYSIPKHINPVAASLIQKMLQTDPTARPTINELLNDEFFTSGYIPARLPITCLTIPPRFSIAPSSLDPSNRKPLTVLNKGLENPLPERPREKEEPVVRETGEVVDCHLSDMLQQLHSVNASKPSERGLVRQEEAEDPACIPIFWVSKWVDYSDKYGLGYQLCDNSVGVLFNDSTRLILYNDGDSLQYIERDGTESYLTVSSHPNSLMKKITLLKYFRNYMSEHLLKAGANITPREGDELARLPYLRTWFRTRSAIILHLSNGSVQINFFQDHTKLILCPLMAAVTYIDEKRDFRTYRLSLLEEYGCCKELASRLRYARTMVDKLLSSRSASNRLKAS

On to `C[C@@H](Oc1cc(-n2cnc3ccc(CN4CCN(C)CC4)cc32)sc1C(N)=O)c1ccccc1C(F)(F)F`, for which the inhibition entry in assay [1] was “Active”.
As for `Cc1cnc(Nc2ccc(C(=O)NC3CCN(C)CC3)c(F)c2)nc1Nc1ccc(Cl)c(NS(=O)(=O)C(C)(C)C)c1`, the ΔTm (in general, the change in melting temperature against a reference sample) in assay [2] was 11.9 °C; in assay [4] it was 13.5 °C. For the same compound, the Kd – broadly, the concentration at which binding is half-saturated – in assay [3] amounted to 12 nM; in [5] it was 54 nM; in assay [6], 59 nM. Also, the IC50 (as a rule, the concentration that gives 50% inhibition) with MM1.S came to 26 nM; with HEK-293T, 140 nM.
Regarding `CCOc1cc(C(=O)N2CCC(N3CCN(C)CC3)CC2)ccc1Nc1ncc2c(n1)N(C1CCCC1)c1ccccc1C(=O)N2C`, the ΔTm in [2] turned out to be 2.3 °C; in assay [4], 7.3 °C. For the same compound, the Kd in assay [3] was determined as 69 nM; in [7] it was 205 nM; in assay [8] it was 1600 nM; in assay [5], 213 nM; in assay [9], 500 nM; in [6], 2100 nM. The IC50 is 280 nM with MM1.S and more than 10000 nM in the assay on HEK-293T.
Regarding `COc1cc(C(=O)N2CCC(N3CCN(C)CC3)CC2)ccc1Nc1ncc2c(n1)N(C)c1ccccc1C(=O)N2C`, the ΔTm in assay [2] was found to be 3.8 °C. For the same compound, in assay [1], the inhibition result was “inactive”. For the same compound, the IC50 in the assay on MM1.S was 530 nM; in the assay on HEK-293T it was 2800 nM.
Turning to `CCOc1cc(N2CCC(O)CC2)ccc1Nc1ncc2c(n1)N(C)c1ccccc1C(=O)N2C`, in [2], the ΔTm turned out to be 2.9 °C. Besides, the Kd in [3] is 205 nM; in assay [7], 800 nM; in [8], 3500 nM; in assay [5], 735 nM; in [9], 675 nM; in assay [6], 4200 nM. In the assay with HEK-293T, this compound returned an IC50 of more than 10000 nM.
`Cc1sc2c(c1C)C(c1ccc(Cl)cc1)=N[C@@H](CC(=O)OC(C)(C)C)c1nnc(C)n1-2`: the inhibition entry in [1] is “inactive”. The compound also gave a 50% inhibitory concentration (IC50) in the assay on MM1.S of 33 nM.
For the compound `CC[C@@H]1C(=O)N(C)c2cnc(Nc3ccc(C(=O)N[C@H]4CC[C@H](N5CCN(CC6CC6)CC5)CC4)cc3OC)nc2N1C(C)C` [VOLASERTIB], the ΔTm in assay [2] was found to be 5 °C. Moreover, the equilibrium dissociation constant (Kd) in assay [3] was determined as 77 nM; in [7] it was 169 nM; in [8], 1030 nM; in assay [5], 317 nM; in assay [9] it was 113 nM; in [6] it was 1700 nM. Moreover, the inhibition entry in assay [1] was “Active”. Also, the results for the IC50 with MM1.S and in the assay with HEK-293T were 4.5 nM and 1.1 nM, respectively.
